Reference: ChEMBL document CHEMBL1201862, “PubChem BioAssay data set” (2004)
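All cell lines were grown in 96-well plates and treated with compound for 48 hours. Here, GI50 denotes the concentration required for 50% inhibition of growth.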 The source made the active and inactive calls. Rule as the data show it: active = GI50 up to about 1.1 µM and inactive = higher.

What was measured:
Test in all cases: inhibition of tumour cell growth, NCI panel, 48 h
[1] = system: IGROV-1
[2] = system: LOX IMVI
[3] = system: PC-3
[4] = system: HOP-92
[5] = system: MCF7
[6] = system: OVCAR-4
[7] = system: NCI-H226
[8] = system: SW-620
[9] = system: MDA-N
[10] = system: SK-MEL-28
[11] = system: SNB-19
[12] = system: Hs-578T
[13] = system: HOP-62
[14] = system: M14
[15] = system: SK-MEL-2
[16] = system: HCT-15
[17] = system: OVCAR-5
[18] = system: NCI-H522
[19] = system: U-251
[20] = system: SF-539
[21] = system: EKVX
[22] = system: SN12C
[23] = system: HT-29
[24] = system: MDA-MB-435
[25] = system: A549
[26] = system: UACC-257
[27] = system: NCI-H460
[28] = system: NCI-H23
[29] = system: ACHN
[30] = system: Malme-3M
[31] = system: K562
[32] = system: OVCAR-3
[33] = system: 786-0
[34] = system: COLO 205
[35] = system: NCI/ADR-RES
[36] = system: KM12
[37] = system: SF-268
[38] = system: OVCAR-8
[39] = system: SK-MEL-5
[40] = system: RXF 393
[41] = system: RPMI-8226
[42] = system: SK-OV-3
[43] = system: SNB-75
[44] = system: TK-10
[45] = system: SF-295
[46] = system: T47D
[47] = system: HCT-116
[48] = system: BT-549
[49] = system: MDA-MB-231
[50] = system: A498
[51] = system: DU-145
[52] = system: CAKI-1
[53] = system: UO-31
[54] = system: UACC-62
[55] = system: HL-60
[56] = system: SR
[57] = system: MOLT-4
[58] = system: CCRF-CEM

CN(C)Cc1nsc(N(C)C)n1 was tested, and the GI50 [1] was > 100 µM (inactive), the GI50 [2] was > 100 µM (inactive) and the GI50 [3] was > 100 µM (inactive). For the same compound, the GI50 [4] was > 100 µM (inactive), the GI50 [5] was > 100 µM (inactive) and the GI50 [6] was > 100 µM (inactive). For the same compound, the GI50 [7] was > 100 µM (inactive), the GI50 [8] was > 100 µM (inactive) and the GI50 [9] was > 100 µM (inactive). For the same compound, the GI50 [10] was > 100 µM (inactive), the GI50 [11] was > 100 µM (inactive) and the GI50 [12] was > 100 µM (inactive). For the same compound, the GI50 [13] was > 100 µM (inactive), the GI50 [14] was > 100 µM (inactive) and the GI50 [15] was > 100 µM (inactive). The GI50 [16] was > 100 µM, the GI50 [17] was > 100 µM (inactive) and the GI50 [18] was > 100 µM (inactive). For the same compound, the GI50 [19] was > 100 µM (inactive), the GI50 [20] was > 100 µM (inactive) and the GI50 [21] was > 100 µM (inactive). The GI50 [22] was > 100 µM (inactive), the GI50 [23] was > 100 µM (inactive) and the GI50 [24] was > 100 µM (inactive). The GI50 [25] was > 100 µM (inactive), the GI50 [26] was > 100 µM (inactive) and the GI50 [27] was > 100 µM (inactive). The GI50 [28] was > 100 µM (inactive), the GI50 [29] was > 100 µM (inactive) and the GI50 [30] was > 100 µM (inactive). The GI50 [31] was > 100 µM (inactive), the GI50 [32] was > 100 µM (inactive) and the GI50 [33] was > 100 µM (inactive). For the same compound, the GI50 [34] was > 100 µM (inactive), the GI50 [35] was > 100 µM (inactive) and the GI50 [36] was > 100 µM (inactive). For the same compound, the GI50 [37] was > 100 µM (inactive), the GI50 [38] was > 100 µM (inactive) and the GI50 [39] was > 100 µM (inactive). For the same compound, the GI50 [40] was > 100 µM (inactive), the GI50 [41] was > 100 µM (inactive) and the GI50 [42] was > 100 µM (inactive). For the same compound, the GI50 [43] was > 100 µM (inactive), the GI50 [44] was > 100 µM (inactive) and the GI50 [45] was > 100 µM (inactive). For the same compound, the GI50 [46] was > 100 µM (inactive), the GI50 [47] was > 100 µM (inactive) and the GI50 [48] was > 100 µM (inactive). The GI50 [49] was > 100 µM (inactive), the GI50 [50] was > 100 µM (inactive) and the GI50 [51] was > 100 µM (inactive). The GI50 [52] was > 100 µM (inactive), the GI50 [53] was > 100 µM (inactive) and the GI50 [54] was > 100 µM (inactive).

With CC(=O)Nc1ccc2nc(N)n[n+]([O-])c2c1 the GI50 [1] was > 100 µM (inactive), the GI50 [2] was > 100 µM (inactive) and the GI50 [3] was > 100 µM (inactive). For the same compound, the GI50 [5] was > 100 µM (inactive), the GI50 [6] was > 100 µM (inactive) and the GI50 [7] was > 100 µM (inactive). The GI50 [8] was > 100 µM (inactive), the GI50 [9] was > 100 µM (inactive) and the GI50 [10] was > 100 µM (inactive). The GI50 [11] was > 100 µM (inactive), the GI50 [12] was 92.3 µM (inactive) and the GI50 [13] was > 100 µM (inactive). For the same compound, the GI50 [14] was > 100 µM (inactive), the GI50 [15] was > 100 µM (inactive) and the GI50 [16] was > 100 µM. For the same compound, the GI50 [17] was > 100 µM (inactive), the GI50 [18] was > 100 µM (inactive) and the GI50 [19] was > 100 µM (inactive). The GI50 [55] was > 100 µM (inactive), the GI50 [56] was > 100 µM (inactive) and the GI50 [20] was > 100 µM (inactive). For the same compound, the GI50 [21] was > 100 µM (inactive), the GI50 [22] was > 100 µM (inactive) and the GI50 [23] was > 100 µM (inactive). The GI50 [57] was > 100 µM (inactive), the GI50 [24] was > 100 µM (inactive) and the GI50 [25] was > 100 µM (inactive). The GI50 [26] was > 100 µM (inactive), the GI50 [27] was > 100 µM (inactive) and the GI50 [28] was > 100 µM (inactive). The GI50 [29] was > 100 µM (inactive), the GI50 [31] was > 100 µM (inactive) and the GI50 [32] was > 100 µM (inactive). For the same compound, the GI50 [33] was > 100 µM (inactive), the GI50 [34] was > 100 µM (inactive) and the GI50 [35] was > 100 µM (inactive). The GI50 [36] was > 100 µM (inactive), the GI50 [37] was > 100 µM (inactive) and the GI50 [38] was > 100 µM (inactive). For the same compound, the GI50 [39] was > 100 µM (inactive), the GI50 [41] was > 100 µM (inactive) and the GI50 [42] was > 100 µM (inactive). For the same compound, the GI50 [43] was 41.4 µM (inactive), the GI50 [44] was 77.8 µM (inactive) and the GI50 [45] was > 100 µM (inactive). The GI50 [46] was 79.8 µM (inactive), the GI50 [47] was > 100 µM (inactive) and the GI50 [48] was > 100 µM (inactive). For the same compound, the GI50 [49] was > 100 µM (inactive), the GI50 [58] was > 100 µM (inactive) and the GI50 [50] was > 100 µM (inactive). The GI50 [51] was > 100 µM (inactive), the GI50 [52] was > 100 µM (inactive) and the GI50 [53] was > 100 µM (inactive). For the same compound, the GI50 [54] was > 100 µM (inactive).
